Our source for the IC50 values is US6166038A, “Aminopyrazole derivatives” (Banyu Pharmaceutical Co., Ltd., priority 1996, dated 2000).

For orientation: IC50 means the midpoint of a concentration-inhibition curve.

The target of the assay is T1, human NPY Y5 receptor (Homo sapiens, UniProt Q15761).
T1 construct: expressed in transfected cells; host or cells: COS-7, CHO and LM(tk-)
T1 sequence (Q15761 1-445): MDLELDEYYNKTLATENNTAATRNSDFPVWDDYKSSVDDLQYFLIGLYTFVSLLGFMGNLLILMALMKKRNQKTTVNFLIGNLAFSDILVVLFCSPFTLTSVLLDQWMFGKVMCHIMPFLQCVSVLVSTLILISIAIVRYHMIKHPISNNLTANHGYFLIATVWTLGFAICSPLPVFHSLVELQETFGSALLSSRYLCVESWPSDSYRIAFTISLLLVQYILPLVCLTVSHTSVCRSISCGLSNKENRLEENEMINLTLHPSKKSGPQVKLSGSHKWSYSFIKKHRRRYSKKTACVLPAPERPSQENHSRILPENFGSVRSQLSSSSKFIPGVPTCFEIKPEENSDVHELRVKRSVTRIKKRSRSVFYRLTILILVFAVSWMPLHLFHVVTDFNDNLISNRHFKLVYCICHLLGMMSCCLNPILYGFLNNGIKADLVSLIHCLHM
In words: test of inhibition of NPY binding ([125I] peptide YY binding to membranes of NPY Y5 receptor-expressing cells). The following applies: [125I] peptide YY, 20,000 cpm, 25° C., 2 hours, pH 7.4; membranes of transfected cells; read-out: IC50 value (inhibition of specific binding of peptide YY). An excerpt:
cDNA Sequence encoding a human NPY Y5 receptor [International Publication Wo 96/16542] was cloned into expression vectors pcDNA3, pRc/RSV (manufactured by Invitrogen) and pCI-neo (manufactured by Promega). Using the cationic lipid method [see Proceedings of the National Academy of Science of the United States of America, vol.84, p.7413 (1987)], host cells COS-7, CHO and LM(tk-) (American Type Culture Collection) were transfected with the thus prepared expression vectors to obtain cells in which the NPY Y5 receptor had been expressed.
Each of the membrane preparations thus prepared from the cells in which the NPY Y5 receptor had been expressed was incubated together with each compound to be tested and 20,000 cpm of [^125 I] peptide YY (manufactured by Amersham) at 25° C. for 2 hours in an assay buffer solution (25 mM HEPES buffer, pH 7.4, containing 10 mM magnesium chloride, 1 mM phenylmethylsulfonyl fluoride and 0.1% bacitracin) and then, the reaction mixture was filtered through a glass filter GF/C. After washing with 50 mM Tris buffer, pH 7.4, containing 0.3% BSA, radioactivity on the glass filter was measured using a gamma counter. […]

As to `COc1ccc(-c2cc(NC(=O)C3CCN(c4cccc(Cl)c4)CC3)n[nH]2)cc1` [Example 4, 3-[1-(3-chlorophenyl)piperidin-4-yl]carbonylamino-5-(4-methoxyphenyl)pyrazole], the IC50 was determined as 39 nM.
